Several values for one entry are separate records, joined by “and”; a condition that tells them apart may be missing. Equal entries are not always repeated. Entries after “also recorded” stand apart in the source; their conditions may differ.
Columns and labels:
HIV-1 [1] = assay: Efficacy of oral bridging (HIV-1 RNA, CD4), CALIBRATE; type: in vivo, human
Description: This Example describes results from a Phase 2 clinical study evaluating the safety and efficacy of LEN in combination with other antiretroviral (ARV) agents in ARV-naive people with HIV (PWH).
This Example describes a Phase 2, randomized, open-label, active-controlled, multicenter study. Participants in Treatment Groups 1 and 2 required oral bridging following a clinical hold imposed by the Food & Drug Administration on injectable LEN as the SC injection of LEN could not be administered within the protocol visit window. An Oral Bridging visit was completed every 10 to 12 weeks. Participants had to have met all of the inclusion criteria and none of the exclusion criteria to be included in the study.

[2] = Safety during oral bridging, studies of Examples 4-5 together
[3] = Exposure-response analyses for efficacy and safety (PopPK-derived exposures); type: in vivo, human
Description: Exposure-response relationships for LEN were evaluated in HTE PWH with HIV-1 RNA<50 copies/mL at the oral bridging baseline in the Phase 2/3 study described in Example 4, using LEN exposure parameters (Ctrough, Cavg, and Cmax) derived from PopPK modeling.
Exposure-safety relationships for LEN were evaluated in the HTE PWH studies described in Example 4 (N=55), and in treatment-naive PWH in the study described in Example 5 (N=82) who received the oral bridging LEN regimen. Exposure-safety evaluations used LEN exposure metrics (Cavg, Ctrough, and Cmax) derived from PopPK analysis and the 5 most common treatment-emergent adverse events (TEAEs) were evaluated in relation to presence/absence in the LEN group across the entire oral bridging period in the two studies separately and combined (excluding infections and infestations AEs and injection site reactions).

HIV-1 [4] = assay: Efficacy of oral bridging (HIV-1 RNA, CD4), CAPELLA; type: in vivo, human; settings: for Percentage who maintained HIV-1 RNA<50 copies/mL: OB baseline HIV-1 RNA<50, Missing=Failure
Description: This Example describes analysis of oral LEN bridging administered during a Phase 2/3, global, randomized, placebo-controlled multicenter study of lenacapavir (LEN) together with an optimized background regimen (OBR) in people with HIV (PWH) with multidrug resistance (MDR) (to […] antiretroviral (ARV) medications from each of ≥3 of the 4 main classes) and who are failing their current regimen (defined as plasma HIV-1 RNA≥400 copies/mL).
This Example describes a Phase 2/3, global, randomized, placebo-controlled multicenter study of LEN together with an OBR in PWH with MDR (to ≥2 ARV medications from each of ≥3 of the 4 main classes) and who are failing their current regimen (defined as plasma HIV-1 RNA≥400 copies/mL). Participants required oral bridging if an SC injection of LEN was not administered within the protocol visit window.
Participants were enrolled in either of the following two cohorts: • Cohort 1: Randomized in a 2:1 ratio to receive oral LEN or placebo for 14 days starting on Day 1, while they continued their existing regimen; or • Cohort 2: Enrolled to receive oral LEN together with an OBR.

For `CC(C)(C#Cc1ccc(-c2ccc(Cl)c3c(NS(C)(=O)=O)nn(CC(F)(F)F)c23)c([C@H](Cc2cc(F)cc(F)c2)NC(=O)Cn2nc(C(F)(F)F)c3c2C(F)(F)[C@@H]2C[C@H]32)n1)S(C)(=O)=O` [LEN, N—((S)-1-(3-(4-chloro-3-(methylsulfonamido)-1-(2,2,2-trifluoroethyl)-1H-indazol-7-yl)-6-(3-methyl-3-(methylsulfonyl)but-1-yn-1-yl)pyridin-2-yl)-2-(3,5-difluorophenyl)ethyl)-2-((3bS,4aR)-5,5-difluoro-3-(trifluoromethyl)-3b,4,4a,5-tetrahydro-1H-cyclopropa [3,4]cyclopenta [1,2-c]pyrazol-1-yl) acetamide], the “CD4 count and CD4% during oral bridging (in words)” value (HIV-1 [1]) was “generally stable or slightly increasing”, the “Mean (SD) CD4 cell count at oral bridging baseline” value (HIV-1 [1]; LEN total group) was 762 (285.2) /μL and the “Mean CD4% at oral bridging baseline” value (HIV-1 [1]; LEN total group) was 34%. For the same molecule, the “Proportion of participants with HIV-1 RNA<50 copies/mL” value (“Proportion of participants” for short) (HIV-1 [1]; LEN total group, OB baseline) was 99.2%, the “Proportion of participants” value (HIV-1 [1]; Missing=Excluded, OB Week 10) was 77/77 (100) % and the “Proportion of participants” value (HIV-1 [1]; Missing=Excluded, OB Week 20) was 58/58 (100) %. The “Proportion of participants” value (HIV-1 [1]; Missing=Excluded, OB Week 30) was 5/5 (100) %, the “Proportion of participants” value (HIV-1 [1]; Missing=Excluded, all subsequent oral bridging time points, all treatment groups) was 100% and the “Proportion of participants” value (HIV-1 [1]; Missing=Failure, Week 10, LEN total) was 97.5%. The “Proportion of participants” value (HIV-1 [1]; Missing=Failure, Week 10, SC LEN total group) was 97.5%, the “Proportion of participants” value (HIV-1 [1]; Missing=Failure, Week 10, oral LEN group) was 97.4% and the “Proportion of participants” value (HIV-1 [1]; Missing=Failure, Week 20, LEN total) was 100%. The “Proportion of participants” value (HIV-1 [1]; Missing=Failure, Week 20, SC LEN total group) was 100%, the “Proportion of participants” value (HIV-1 [1]; Missing=Failure, Week 20, oral LEN group) was 100% and the “Mean CD4% at oral bridging baseline” value (HIV-1 [1]; SC LEN total group) was 35%. The “Proportion of participants” value (HIV-1 [1]; SC LEN total group (received OB), OB Baseline) was 100% and 82/82 (100) %, the “Mean change from oral bridging baseline in CD4%” value (“Mean change … in CD4%” for short) (HIV-1 [1]; Week 10, LEN total group) was 1% and the “Mean change from oral bridging baseline in CD4 cell count” value (“Mean change … in CD4 cell count” for short) (HIV-1 [1]; Week 10, LEN total group) was 35 µL⁻¹. The “Mean change … in CD4%” value (HIV-1 [1]; Week 10, SC LEN total group) was 0%, the “Mean change … in CD4 cell count” value (HIV-1 [1]; Week 10, SC LEN total group) was 26 µL⁻¹ and the “Mean change … in CD4%” value (HIV-1 [1]; Week 10, oral LEN group) was 1%. The “Mean change … in CD4 cell count” value (HIV-1 [1]; Week 10, oral LEN group) was 55 µL⁻¹, the “Mean change … in CD4%” value (HIV-1 [1]; Week 20, LEN total group) was 0% and the “Mean change … in CD4 cell count” value (HIV-1 [1]; Week 20, LEN total group) was 0 µL⁻¹. The “Mean change … in CD4%” value (HIV-1 [1]; Week 20, SC LEN total group) was 0%, the “Mean change … in CD4 cell count” value (HIV-1 [1]; Week 20, SC LEN total group) was -31 µL⁻¹ and the “Mean change … in CD4%” value (HIV-1 [1]; Week 20, oral LEN group) was 1%. The “Mean change … in CD4 cell count” value (HIV-1 [1]; Week 20, oral LEN group) was 106 µL⁻¹, the “Mean CD4% at oral bridging baseline” value (HIV-1 [1]; oral LEN group) was 33% and the “Proportion of participants” value (HIV-1 [1]; oral LEN group, OB baseline) was 97.4%. The “Virologic suppression / virologic failure during oral bridging (in words)” value (HIV-1 [1]; treatment-naive participants) was “remained virologically suppressed; also recorded: No treatment-naive participants from the study described in Example 4 experienced virologic failure”, the “Overall safety and tolerability of oral bridging LEN 300 mg weekly” value ([2]; HTE and treatment-naive PWH) was “generally safe and well tolerated” and the “Study drug-related SAEs” value ([2]; oral bridging period) was “no study drug-related SAEs”. For the same molecule, the “Exposure-safety relationship (Cavg, Ctrough, Cmax vs common AEs)” value ([3]; Examples 4 (N=55) and 5 (N=82), separately and combined) was “lack of association between LEN exposure from oral bridging and the incidence of common AEs”, the “Exposure-efficacy relationship (post hoc Ctrough vs HIV-1 RNA <50 or ≥50 copies/mL)” value ([3]; HTE PWH (Example 4)) was “No trend in post hoc Ctrough was observed” and the “Participants with HIV-1 RNA<50 copies/mL at the time SC LEN was resumed” value ([3]; HTE PWH with HIV-1 RNA<50 at OB baseline (Example 4)) was 39 of 40. The “CD4 count and CD4% during oral bridging (in words)” value (HIV-1 [4]) was “continued to increase from oral bridging baseline”, the “Mean (SD) oral bridging baseline CD4 cell count” value (HIV-1 [4]) was 356 (261.1) cells/μL and the “Mean oral bridging baseline CD4 percentage” value (HIV-1 [4]) was 17.0%. For the same molecule, the “Percentage who maintained HIV-1 RNA<50 copies/mL” value (HIV-1 [4]; Week 10) was 97.8%, the “Percentage who maintained HIV-1 RNA<50 copies/mL” value (HIV-1 [4]; Week 20) was 90.9% and the “Mean (SD) change from oral bridging baseline in HIV-1 RNA” value (shortened to “Mean (SD) change … in HIV-1 RNA”) (HIV-1 [4]; OB baseline HIV-1 RNA<50, Week 10) was 0.00 (0.250) log10 copies/mL. The “Mean (SD) change … in HIV-1 RNA” value (HIV-1 [4]; OB baseline HIV-1 RNA<50, Week 20) was −0.01 (0.096) log10 copies/mL, the “Mean (SD) baseline HIV-1 RNA” value (HIV-1 [4]; OB baseline HIV-1 RNA<50 copies/mL) was 1.34 (0.121) log10 copies/mL and the “Percentage who achieved HIV-1 RNA<50 copies/mL” value (HIV-1 [4]; OB baseline HIV-1 RNA≥50, Missing=Excluded, Week 10) was 27.3%. The “Percentage who achieved HIV-1 RNA<50 copies/mL” value (HIV-1 [4]; OB baseline HIV-1 RNA≥50, Missing=Excluded, Week 20) was 50.0%, the “Percentage who achieved HIV-1 RNA<50 copies/mL” value (HIV-1 [4]; OB baseline HIV-1 RNA≥50, Missing=Failure, Week 10) was 27.3% and the “Percentage who achieved HIV-1 RNA<50 copies/mL” value (HIV-1 [4]; OB baseline HIV-1 RNA≥50, Missing=Failure, Week 20) was 40.0%. The “Mean (SD) change … in HIV-1 RNA” value (HIV-1 [4]; OB baseline HIV-1 RNA≥50, Week 10) was −0.58 (1.188) log10 copies/mL, the “Mean (SD) change … in HIV-1 RNA” value (HIV-1 [4]; OB baseline HIV-1 RNA≥50, Week 20) was −1.05 (0.867) log10 copies/mL and the “Mean (SD) baseline HIV-1 RNA” value (HIV-1 [4]; OB baseline HIV-1 RNA≥50 copies/mL) was 3.43 (1.035) log10 copies/mL. The “Mean (SD) change from oral bridging baseline in CD4 cell count” value (HIV-1 [4]; Week 10) was −16 (114.2) cells/μL, the “Mean change from oral bridging baseline in CD4 percentage” value (HIV-1 [4]; Week 10) was 0.2% and the “HIV-1 RNA of the 1 participant who did not maintain <50 copies/mL” value (HIV-1 [4]; Week 10, missed 2 nonconsecutive oral doses, N74D) was 920 copies/mL.
